The subject of assay [1] is NCI-H460, human non-small cell lung cancer cells. Nature of the assay: Cell-MTS cellular proliferation assay, NCI-H460. The class given is cell-based. The following applies: Homo sapiens, 168 hr incubation. The gist of the method: (§1)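 Cells seeded to reach ~90% confluence at 7 days (Raji 15,000, HL-60 5,000, NCI-H460 3,000 per well); 11-point compound dilution, 100 µM to 2.0 nM final, added 24 h after plating. Exposure 168 hr at 37 °C, 5% CO2; MTS read at OD490. IC50 from background-subtracted OD490 normalized to DMSO controls.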
On the technique in general: Formazan colour is commonly taken as a measure of viable cells.

For assay [2], the system named is Raji, human Burkitts lymphoma cells. Nature of the assay: Cell-MTS cellular proliferation assay, Raji. The following applies: Homo sapiens, 168 hr incubation. The class given is cell-based. The gist of the method:
as §1

The target of assay [3] is BRD4(BD1) (Homo sapiens (Human), UniProt O60885). Nature of the assay: In vitro enzyme inhibition assay (BRD4 AlphaScreen, H4-tetraacetyl peptide). The class given is binding. The following applies: BRD4(BD1) 2 nM, peptide 15 nM. The gist of the method: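 His-tagged BRD4(BD1), 2 nM, with 15 nM biotinylated H4K5/8/12/16(Ac) peptide in HEPES pH 7.3 buffer, 0.4% DMSO, 20 min RT with compound. Streptavidin donor and Ni-chelate acceptor beads (5 μg/mL) then equilibrated 2 h. AlphaScreen signal; IC50 by four-parameter fit.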

In assay [4] the test system is HL-60, human proleukemia cells. Nature of the assay: Cell-MTS cellular proliferation assay, HL-60. The class given is cell-based. The following applies: Homo sapiens, HL-60 cells, 168 hr incubation. The gist of the method: as §1

As usually defined, the IC50 is the concentration that gives 50% inhibition. Consider `CCS(=O)(=O)Nc1cc(-c2cn(C)c(=O)c3ccccc23)c2oc(C3CC3)nc2c1` [Example 48, N-[2-cyclopropyl-7-(2-methyl-1-oxoisoquinolin-4-yl)-1,3-benzoxazol-5-yl]ethanesulfonamide], for which the IC50 in assay [1] was no more than 0.5 µM; in assay [2] it was no more than 500 nM; in assay [3], no more than 500 nM; in assay [4], no more than 500 nM.

As for `CCS(=O)(=O)N1CCOc2cc(OCC3CC3)c(-c3cn(C)c(=O)c4ccccc34)cc21` [Example 49, 4-[7-(cyclopropylmethoxy)-4-ethylsulfonyl-2,3-dihydro-1,4-benzoxazin-6-yl]-2-methylisoquinolin-1-one], the IC50 in assay [1] was 0.5 to 5 µM; in assay [2] it was no more than 500 nM; in assay [3], no more than 500 nM; in assay [4], no more than 500 nM.

Regarding `CCS(=O)(=O)N1CCOc2cc(OCC3CC3)c(-c3cc(C)c(=O)n(C)c3)cc21` [Example 50, 5-[7-(cyclopropylmethoxy)-4-ethylsulfonyl-2,3-dihydro-1,4-benzoxazin-6-yl]-1,3-dimethylpyridin-2-one], the IC50 in assay [1] is greater than 5 µM; in assay [2] it was no more than 500 nM; in assay [3] it was no more than 500 nM; in assay [4] it was no more than 500 nM.

Take `Cc1cc(-c2cc(NS(=O)(=O)C(C)C)cc3nc(C4CC4)oc23)cn(C)c1=O` [Example 51, N-[2-cyclopropyl-7-(1,5-dimethyl-6-oxopyridin-3-yl)-1,3-benzoxazol-5-yl]propane-2-sulfonamide]: the IC50 in assay [1] was greater than 5 µM; in assay [2], 500 to 5000 nM; in assay [3] it was no more than 500 nM; in assay [4], no more than 500 nM.

In the case of `CCS(=O)(=O)Nc1cc(-c2cc(C)c(=O)n(C)c2)c2oc(C3CCCC3)nc2c1` [Example 52, N-[2-cyclopentyl-7-(1,5-dimethyl-6-oxopyridin-3-yl)-1,3-benzoxazol-5-yl]ethanesulfonamide], the IC50 in assay [1] was greater than 5 µM; in assay [2], no more than 500 nM; in assay [3], no more than 500 nM; in assay [4], no more than 500 nM.

In the case of `CCS(=O)(=O)Nc1cc(-c2cn(C)c(=O)c3ccccc23)c2oc(C3CCCC3)nc2c1` [Example 53, N-[2-cyclopentyl-7-(2-methyl-1-oxoisoquinolin-4-yl)-1,3-benzoxazol-5-yl]ethanesulfonamide], the IC50 in assay [1] was greater than 5 µM; in assay [2], no more than 500 nM; in assay [3], no more than 500 nM; in assay [4], no more than 500 nM.

For `Cc1cc(-c2cc(CS(C)(=O)=O)cc3nc(C4CC4)oc23)cn(C)c1=O` [Example 56, 5-[2-cyclopropyl-5-(methylsulfonylmethyl)-1,3-benzoxazol-7-yl]-1,3-dimethylpyridin-2-one], the IC50 in assay [1] was greater than 5 µM; in assay [2] it was 500 to 5000 nM; in assay [3] it was no more than 500 nM; in assay [4] it was no more than 500 nM.

As for `CCS(=O)(=O)Nc1cc(-c2cc(OC)c(=O)n(C)c2)c2oc(C3CCCC3)nc2c1` [Example 57, N-[2-cyclopentyl-7-(5-methoxy-1-methyl-6-oxopyridin-3-yl)-1,3-benzoxazol-5-yl]ethanesulfonamide], the IC50 is greater than 5 µM in assay [1], no more than 500 nM in assay [2], no more than 500 nM in assay [3] and no more than 500 nM in assay [4].

On to `Cc1cc(-c2cc3c(S(C)(=O)=O)nn(C)c3cc2OCC2CC2)cn(C)c1=O` [Example 58, 5-[6-(cyclopropylmethoxy)-1-methyl-3-methylsulfonylindazol-5-yl]-1,3-dimethylpyridin-2-one], for which the IC50 in assay [1] was greater than 5 µM; in assay [2] it was no more than 500 nM; in assay [3], no more than 500 nM; in assay [4], no more than 500 nM.

As for `COc1cc(-c2cc3c(S(C)(=O)=O)nn(C)c3cc2OCC2CC2)cn(C)c1=O` [Example 59, 5-[6-(cyclopropylmethoxy)-1-methyl-3-methylsulfonylindazol-5-yl]-3-methoxy-1-methylpyridin-2-one], the IC50 is greater than 5 µM in assay [1], no more than 500 nM in assay [2], no more than 500 nM in assay [3] and no more than 500 nM in assay [4].

As for `Cc1cc(-c2cc3c(nc(C)n3Cc3ccc(F)cc3)c(NS(C)(=O)=O)n2)cn(C)c1=O` [Example 60, N-[6-(1,5-dimethyl-6-oxopyridin-3-yl)-1-[(4-fluorophenyl)methyl]-2-methylimidazo[4,5-c]pyridin-4-yl]methanesulfonamide], the IC50 in assay [1] is greater than 5 µM; in assay [2] it was no more than 500 nM; in assay [3], no more than 500 nM; in assay [4], no more than 500 nM.

In the case of `Cc1cc(-c2cc3c(nc(C)n3Cc3ccccc3)c(NS(C)(=O)=O)n2)cn(C)c1=O` [Example 61, N-[1-benzyl-6-(1,5-dimethyl-6-oxopyridin-3-yl)-2-methylimidazo[4,5-c]pyridine-4-yl]methanesulfonamide], the IC50 in assay [1] is greater than 5 µM; in assay [2], no more than 500 nM; in assay [3] it was no more than 500 nM; in assay [4], no more than 500 nM.

With `Cc1cc(-c2cc3c(nc(C)n3Cc3ccc(F)cc3F)c(NS(C)(=O)=O)n2)cn(C)c1=O` [Example 62, N-[1-[(2,4-difluorophenyl)methyl]-6-(1,5-dimethyl-6-oxopyridin-3-yl)-2-methylimidazo[4,5-c]pyridin-4-yl]methanesulfonamide], the IC50 in assay [1] was greater than 5 µM; in assay [2] it was no more than 500 nM; in assay [3] it was no more than 500 nM; in assay [4], no more than 500 nM.

Regarding `Cc1cc(-c2cc(NS(C)(=O)=O)c3c(F)nn(Cc4ccc(F)cc4)c3c2)cn(C)c1=O` [Example 64, N-[6-(1,5-dimethyl-6-oxopyridin-3-yl)-3-fluoro-1-[(4-fluorophenyl)methyl]indazol-4-yl]methanesulfonamide], the IC50 in assay [1] is greater than 5 µM; in assay [2] it was no more than 500 nM; in assay [3], no more than 500 nM; in assay [4], no more than 500 nM.

For `COc1cc(-c2cc(NS(C)(=O)=O)c3c(F)nn(Cc4ccc(F)cc4)c3c2)cn(C)c1=O` [Example 65, N-[3-fluoro-1-[(4-fluorophenyl)methyl]-6-(5-methoxy-1-methyl-6-oxopyridin-3-yl)indazol-4-yl]methanesulfonamide], the 50% inhibitory concentration (IC50) was greater than 5 µM in assay [1], no more than 500 nM in assay [2], no more than 500 nM in assay [3] and no more than 500 nM in assay [4].

For `Cc1cc(-c2cc(NS(C)(=O)=O)c3c(F)nn(CC4CC4)c3c2)cn(C)c1=O` [Example 66, N-[1-(cyclopropylmethyl)-6-(1,5-dimethyl-6-oxopyridin-3-yl)-3-fluoroindazol-4-yl]methanesulfonamide], the IC50 in assay [1] was greater than 5 µM; in assay [2], no more than 500 nM; in assay [3], no more than 500 nM; in assay [4], no more than 500 nM.

Turning to `Cc1cc(-c2cc(S(C)(=O)=O)c3nc(C)n(Cc4ccccc4)c3c2)cn(C)c1=O` [Example 67, 5-(3-benzyl-2-methyl-7-methylsulfonylbenzimidazol-5-yl)-1,3-dimethylpyridin-2-one], the 50% inhibitory concentration (IC50) in assay [1] was greater than 5 µM; in assay [2], no more than 500 nM; in assay [3] it was no more than 500 nM; in assay [4], no more than 500 nM.

`CCS(=O)(=O)c1cc(-c2cc(OC)c(=O)n(C)c2)cc2c1nc(C)n2Cc1ccccc1` [Example 68, 5-(3-benzyl-7-ethylsulfonyl-2-methylbenzimidazol-5-yl)-3-methoxy-1-methylpyridin-2-one]: the IC50 in assay [1] is greater than 5 µM; in assay [2], 500 to 5000 nM; in assay [3], no more than 500 nM; in assay [4], 500 to 5000 nM.

For the compound `Cc1cc(-c2cc(S(C)(=O)=O)c3nc(C)n(CC4CC4)c3c2)cn(C)c1=O` [Example 71, 5-[3-(cyclopropylmethyl)-2-methyl-7-methylsulfonylbenzimidazol-5-yl]-1,3-dimethylpyridin-2-one], the IC50 is greater than 5 µM in assay [1], greater than 5000 nM in assay [2], no more than 500 nM in assay [3] and 500 to 5000 nM in assay [4].

Regarding `CCOc1nc2c(NS(C)(=O)=O)cc(-c3cc(C)c(=O)n(C)c3)cc2n1CC1CC1` [Example 72, N-[1-(cyclopropylmethyl)-6-(1,5-dimethyl-6-oxopyridin-3-yl)-2-ethoxybenzimidazol-4-yl]methanesulfonamide], the IC50 in assay [1] is 0.5 to 5 µM; in assay [2], no more than 500 nM; in assay [3] it was no more than 500 nM; in assay [4], no more than 500 nM.

Regarding `COc1nc2c(NS(C)(=O)=O)cc(-c3cc(C)c(=O)n(C)c3)cc2n1CC1CC1` [Example 73, N-[1-(cyclopropylmethyl)-6-(1,5-dimethyl-6-oxopyridin-3-yl)-2-methoxybenzimidazol-4-yl]methanesulfonamide], the IC50 in assay [1] is 0.5 to 5 µM; in assay [2], no more than 500 nM; in assay [3], no more than 500 nM; in assay [4], no more than 500 nM.

In the case of `Cn1cc(-c2cc(NS(C)(=O)=O)cc3cc(C4CC4)oc23)c2ccccc2c1=O` [Example 79, N-[2-cyclopropyl-7-(2-methyl-1-oxoisoquinolin-4-yl)-1-benzofuran-5-yl]methanesulfonamide], the IC50 in assay [1] is no more than 0.5 µM; in assay [2] it was no more than 500 nM; in assay [3], no more than 500 nM; in assay [4], no more than 500 nM.

In the case of `Cc1cc(-c2cc(NS(C)(=O)=O)cc3cc(C4CC4)oc23)cn(C)c1=O` [Example 80, N-[2-cyclopropyl-7-(1,5-dimethyl-6-oxopyridin-3-yl)-1-benzofuran-5-yl]methanesulfonamide], the IC50 in assay [1] is 0.5 to 5 µM; in assay [2] it was no more than 500 nM; in assay [3], no more than 500 nM; in assay [4], no more than 500 nM.

The values above are taken from patent US10807982B2, “Bromodomain inhibitors” (CELGENE QUANTICEL RESEARCH, INC., priority 2015, dated 2020).
